Experimental findings from ChEMBL document CHEMBL4376846, “Peptide-β-lactam Inhibitors of Dengue and West Nile Virus NS2B-NS3 Protease Display Two Distinct Binding Modes” (J Med Chem, 2020) are described below.

pEC50, pIC50: −log10 of the molar value. The source made the active and inactive calls. No cut-off for these calls is given here. Peptide text beside a SMILES is read from it. * marks the point of attachment. Bz = O=C(c1ccccc1)*

In series [1] the target is Trypsin (Homo sapiens) (UniProt P07477+P07478+P35030). Put plainly: Inhibition of trypsin (unknown origin) at 50 uM using Boc-Val-Pro-Arg-AMC as substrate preincubated for 15 mins followed by substrate addition measured after 10 mins by fluorimetric analysis relative to control. It is filed as protein assay.
The target in series [2] is Genome polyprotein (dengue virus type 2) (UniProt P29990). Put plainly: Inhibition of Dengue virus NS2B-NS3 protease at 50 uM using 2-Abz-Nle-Lys-Arg-Arg-Ser-(3-NO2)-Tyr-NH2 FRET substrate preincubated for 15 mins followed by substrate addition measured after 15 mins by fluorimetric analysis relative to control.
In series [3] the target is Genome polyprotein (West Nile virus) (UniProt P06935). The series can be described thus: Inhibition of West Nile virus NS2B-NS3 protease at 50 uM using 2-Abz-Nle-Lys-Arg-Arg-Ser-(3-NO2)-Tyr-NH2 FRET substrate preincubated for 15 mins followed by substrate addition measured after 15 mins by fluorimetric analysis relative to control.
For series [4], the target named is Genome polyprotein (dengue virus type 2) (UniProt P29990). The series can be described thus: Binding affinity to Dengue virus NS2B-NS3 protease assessed as presence of lysine and benzyloxy-phenylglycine residues in active site.
In series [5] the target is Genome polyprotein (West Nile virus, UniProt P06935). The series can be described thus: Inhibition of West Nile virus NS2B-NS3 protease using 2-Abz-Nle-Lys-Arg-Arg-Ser-(3-NO2)-Tyr-NH2 FRET substrate preincubated for 15 mins followed by substrate addition measured after 15 mins by fluorimetric analysis.
Series [6] has as its target Prothrombin (Homo sapiens) (UniProt P00734). Put plainly: Inhibition of thrombin (unknown origin) at 50 uM using Boc-Val-Pro-Arg-AMC as substrate preincubated for 15 mins followed by substrate addition measured after 10 mins by fluorimetric analysis relative to control.
Series [7] has as its target T1, Genome polyprotein (dengue virus type 2, UniProt P29990). The series can be described thus: Inhibition of Dengue virus NS2B-NS3 protease using 2-Abz-Nle-Lys-Arg-Arg-Ser-(3-NO2)-Tyr-NH2 FRET substrate preincubated for 15 mins followed by substrate addition measured after 15 mins by fluorimetric analysis.
Series [8] has as its system dengue virus type 2. The series can be described thus: Antiviral activity against Dengue virus serotype 2 infected in HuH7 cells assessed as reduction in viral titer after 48 hrs by plaque assay. The note with it: Huh-7, 48 h. It is filed as functional, organism-based.
In series [9] the target is Genome polyprotein (dengue virus type 2) (UniProt P29990). Put plainly: Reversible inhibition of Dengue virus NS2B-NS3 protease assessed as increase in intrinsic fluorescence of tryptophan at active site at 60 uM pretreated for 16 hrs followed by quencher addition measured after 5 mins by tryptophan quenching assay.
Series [10] relates to dengue virus type 2. Put plainly: Binding affinity to Dengue virus serotype 2 […]-NS3 protease S135A mutant expressed in Escherichia coli BL21 lambda (DE3) cells assessed as effect on intrinsic fluorescence of tryptophan at active site at 20 to 60 uM measured after 5 mins in presence of quencher by tryptophan quenching assay.
The target of series [11] is Genome polyprotein (dengue virus type 2) (UniProt P29990). The series can be described thus: Reversible inhibition of Dengue virus NS2B-NS3 protease at 60 uM preincubated for 3 to 6 hrs followed by 2-Abz-Nle-Lys-Arg-Arg-Ser-(3-NO2)-Tyr-NH2 FRET substrate addition followed by further compound dilution to 1.7 uM and measured every 30 mins for 2 hrs by dilution experiment based fluorimetric analysis.

The subject of series [12] is Huh-7. The series can be described thus: Cytotoxicity against human HuH7 cells infected with Dengue virus serotype 2 assessed as effect on cell viability up to 50 uM after 48 hrs by Celltiter-blue assay. It is filed as cell-based. The note with it: huh-7, 48 h.
The target of series [13] is T1, Genome polyprotein. The series can be described thus: Substrate activity at Dengue virus NS2B-NS3 protease assessed as time taken for peptide cleavage at 100 uM incubated for 11 hrs by HPLC-ESI/MS analysis. It counts as ADME.
The target of series [14] is Genome polyprotein (dengue virus type 2) (UniProt P29990). Put plainly: Competitive inhibition of Dengue virus NS2B-NS3 protease assessed as increase in intrinsic fluorescence of tryptophan at active site measured after 5 mins in presence of quencher by tryptophan quenching assay.
Series [15] shares this target. Put plainly: Competitive inhibition of Dengue virus NS2B-NS3 protease assessed as increase in intrinsic fluorescence of tryptophan at active site at 20 to 60 uM measured after 5 mins in presence of quencher by tryptophan quenching assay.
Series [16] has the same target. The series can be described thus: Time dependent irreversible inhibition of Dengue virus NS2B-NS3 protease at 60 uM preincubated for 3 to 6 hrs followed by 2-Abz-Nle-Lys-Arg-Arg-Ser-(3-NO2)-Tyr-NH2 FRET substrate addition followed by further compound dilution to 1.7 uM and measured every 30 mins for 2 hrs by dilution experiment based fluorimetric analysis.
For series [17] the target is unchanged. The series can be described thus: Competitive inhibition of Dengue virus NS2B-NS3 protease assessed as increase in intrinsic fluorescence of tryptophan at active site up to 20 uM measured after 5 mins by tryptophan quenching assay.
Series [18] relates to dengue virus type 2. The series can be described thus: Binding affinity to Dengue virus serotype 2 […]-NS3 protease S135A mutant expressed in Escherichia coli BL21 lambda (DE3) cells assessed as effect on intrinsic fluorescence of tryptophan at active site up to 20 uM by tryptophan quenching assay.

In general, inhibition refers to how much of the control response was suppressed. Turning to `NCCCC[C@H](NC(=O)c1ccccc1)C(=O)N[C@@H](CCCCN)C(=O)N[C@@H]1CN(c2ccccc2)C1=O`, the inhibition is over 20% in [1], 39.7% in series [2] and 51.7% in series [3].

With `N=C(N)NCCC[C@H](NC(=O)c1ccccc1)C(=O)N[C@@H](CCCCN)C(=O)O` (Bz-Arg-Lys-OH), the result in series [4] was Active.

The term pIC50 denotes −log10 of the IC50, conventionally taken in molar units. `N=C(N)NCCC[C@H](NC(=O)c1ccccc1)C(=O)N[C@@H](CCCCN)C(=O)N[C@H]1CN(c2ccccc2)C1=O` showed a pIC50 in series [5] of 4.65. For the same molecule, the values for the inhibition in series [2] and in [3] were 57.1% and 81.4%, respectively.

Regarding `N=C(N)NCCC[C@H](NC(=O)[C@H](CCCCN)NC(=O)c1ccccc1)C(=O)N[C@@H]1CN(c2ccccc2)C1=O`, the inhibition in series [2] and in [3] was under 20% in each case.

As to `Cc1ccc(N2C[C@@H](NC(=O)[C@H](NC(=O)[C@H](CCCCN)NC(=O)[C@H](CCCNC(=N)N)NC(=O)c3ccccc3)c3ccc(OCc4ccccc4)cc3)C2=O)cc1`, the inhibition in series [6] is under 20%; in series [1] it was under 20%; in series [2] it was 73.5%; in series [3], 52.9%. The pIC50 in [7] was 4.80.

For the molecule `CCCC[C@H](NC(=O)[C@H](CCCCN)NC(=O)c1ccccc1)C(=O)N[C@H]1CN(c2ccccc2)C1=O`, the inhibition in series [2] and in series [3] was under 20% each time.

As to `N[C@@H](C(=O)N[C@H]1CN(c2ccccc2)C1=O)c1ccc(OCc2ccccc2)cc1`, the result in series [4] was Active.

For orientation: pEC50 means the negative decadic logarithm of the EC50, by convention in mol/L. Turning to `N=C(N)NCCC[C@H](NC(=O)c1ccccc1)C(=O)N[C@@H](CCCCN)C(=O)N[C@@H](C(=O)N[C@H]1CN(c2ccccc2)C1=O)c1ccc(OCc2ccccc2)cc1`, the pEC50 in series [8] is 4.93. In addition, the inhibition entry in [9] and in [15] was “Active” each time. Besides, in series [10], the result was inactive. In [7], this molecule gave a pIC50 of 5.64. Besides, the inhibition result in series [11] and in series [16] was “inactive” each time. The Activity result in series [12] is recorded as “Non-Toxic”. In addition, the Time in [13] came out at 14 h. The inhibition in [2] is 96%; in [3], 60.1%; in series [14] it was “Dose-dependent effect”.

Consider `N=C(N)NCCC[C@H](NC(=O)c1ccccc1)C(=O)N[C@@H](CCCCN)C(=O)N[C@@H](C(=O)N[C@@H]1CN(c2cccc(F)c2)C1=O)c1ccc(OCc2ccccc2)cc1`, for which the inhibition is under 20% in [6], under 20% in series [1], 80.8% in [2] and 61.6% in series [3]. The same molecule showed a pIC50 in [7] of 4.91.

As for `NCCCC[C@H](NC(=O)c1ccccc1)C(=O)N[C@@H](CCCCN)C(=O)N[C@H]1CN(c2ccccc2)C1=O`, the inhibition in series [2] and in series [3] was under 20% each time.

For the molecule `N=C(N)NCCC[C@H](NC(=O)c1ccccc1)C(=O)N[C@@H](CCCCN)C(=O)N[C@@H](C(=O)N[C@H]1CN(c2cccc(F)c2)C1=O)c1ccc(OCc2ccccc2)cc1`, the pIC50 in series [7] is 5.72. Also, the inhibition was found to be 96.8% in series [2] and 64.1% in series [3].

On to `N=C(N)NCCC[C@H](NC(=O)c1ccccc1)C(=O)N[C@@H](CCCCN)C(=O)N[C@@H](C(=O)N[C@H]1CN(c2ccc(F)cc2)C1=O)c1ccc(OCc2ccccc2)cc1`, for which the pEC50 in series [8] is 5.39. For the same molecule, in series [7], the pIC50 was 5.60. Besides, the Activity result in series [12] is on record as “Non-Toxic”. The inhibition was found to be 96.3% in series [2] and 60.9% in series [3].

In [7], `Cc1ccc(N2C[C@H](NC(=O)[C@H](NC(=O)[C@H](CCCCN)NC(=O)[C@H](CCCNC(=N)N)NC(=O)c3ccccc3)c3ccc(OCc4ccccc4)cc3)C2=O)cc1` showed a pIC50 of 5.57. Further, the values for the inhibition in series [2] and in series [3] were 95.9% and 60.3%, respectively.

With `N=C(N)NCCC[C@H](NC(=O)[C@H](CCCCN)NC(=O)c1ccccc1)C(=O)N[C@H]1CN(c2ccccc2)C1=O`, the inhibition in series [2] and in series [3] was under 20% in each case.

On to `N=C(N)NCCC[C@H](NC(=O)c1ccccc1)C(=O)N[C@@H](CCCCN)C(=O)N[C@@H](C(=O)N[C@@H]1CN(c2ccc(F)cc2)C1=O)c1ccc(OCc2ccccc2)cc1`, for which the inhibition in [6] is under 20%; in series [1] it was under 20%; in series [2], 65.5%; in series [3] it was 43.4%.

`Cc1cccc(N2C[C@H](NC(=O)[C@H](NC(=O)[C@H](CCCCN)NC(=O)[C@H](CCCNC(=N)N)NC(=O)c3ccccc3)c3ccc(OCc4ccccc4)cc3)C2=O)c1`: in [7], the pIC50 is 5.55. The inhibition is 96.5% in [2] and 46.8% in series [3].

Take `N=C(N)NCCC[C@H](NC(=O)c1ccccc1)C(=O)N[C@@H](CCCCN)C(=O)N[C@@H](C(=O)N[C@@H]1CN(c2ccccc2)C1=O)c1ccc(OCc2ccccc2)cc1`: the inhibition is under 20% in [6], under 20% in series [1], 68.8% in [2] and 46.9% in [3].

Turning to `CCCC[C@H](NC(=O)[C@H](CCCNC(=N)N)NC(=O)c1ccccc1)C(=O)N[C@H]1CN(c2ccccc2)C1=O`, the values for the inhibition in [1], in series [2] and in series [3] were over 20%, under 20% and under 20%, respectively.

Turning to `CCCC[C@H](NC(=O)[C@H](CCCCN)NC(=O)c1ccccc1)C(=O)N[C@@H]1CN(c2ccccc2)C1=O`, the inhibition is over 20% in series [1], under 20% in series [2] and 24.4% in [3].

As for `COc1cccc(COc2ccc([C@@H](NC(=O)[C@H](CCCCN)NC(=O)[C@H](CCCNC(=N)N)NC(=O)c3ccc(-c4cccs4)s3)C(N)=O)cc2)c1`, the inhibition result in series [17] was “Active”. In addition, the result in [18] was Active.

As to `Cc1cccc(N2C[C@@H](NC(=O)[C@H](NC(=O)[C@H](CCCCN)NC(=O)[C@H](CCCNC(=N)N)NC(=O)c3ccccc3)c3ccc(OCc4ccccc4)cc3)C2=O)c1`, the inhibition was under 20% in series [6], under 20% in [1], 77.7% in series [2] and 45.1% in series [3]. Besides, the negative-log IC50 (pIC50) in series [7] was 4.79.

Turning to `N=C(N)NCCC[C@H](NC(=O)c1ccccc1)C(=O)N[C@@H](CCCCN)C(=O)N[C@@H]1CN(c2ccccc2)C1=O`, in series [7], the pIC50 was 4.75. The inhibition in series [2] was 71.6%; in series [3], 27.8%.

For `N=C(N)NCCC[C@H](NC(=O)c1ccccc1)C(=O)N[C@@H](CCCCN)C(=O)N[C@@H](C(N)=O)c1ccc(OCc2ccccc2)cc1`, the Time in series [13] was determined as 7 h.

On to `CCCC[C@H](NC(=O)[C@H](CCCNC(=N)N)NC(=O)c1ccccc1)C(=O)N[C@@H]1CN(c2ccccc2)C1=O`, for which the inhibition in [2] and in [3] was under 20% throughout.
